Here are results for two compounds from publication PMC7618597, “Dual Nurr1/RXR agonism of valerenic acid and synthetic mimetics enables dimer-selective Nurr1 modulation” (ACS medicinal chemistry letters, 2025).

Test [1] has as its target T1, Nurr1:RXR heterodimer (DR5) (Homo sapiens, UniProt P19793+P43354).
T1 construct: full-length human nuclear receptor Nurr1 encoded by pcDNA3.1 -hNurr1-NE; full length human RXRα encoded by pSG5-hRXR; host or cells: HEK293T
Nature of the test: Full-length Nurr1 reporter gene assay, heterodimer response element DR5. The test is classed as cell-based. Particulars: read-out: EC50, activation of the Nurr1:RXR heterodimer (DR5). On the procedure: Based on these findings, we next determined the effects of 2 and 3 on Nurr1 activity in a cellular setting using reporter constructs for the NGFI-B response element (NBRE), the Nur response element (NurRE), and the direct repeat 5 (DR5)[36]. All three response elements are robustly activated by common Nurr1 agonists[4],[31]. […]
Reporter gene assays for full-length human Nurr1 and RXR. Modulation of full-length human Nurr1 (NR4A2) was studied using pRL-SV40 (1.5 ng/well reporter plasmid) and the previously described4 reporter plasmids pFR-Luc-NBRE (100 ng/well reporter plasmid), pFR-Luc-NurRE (50 ng/well reporter plasmid) or pFR-Luc-DR5 (50 ng/well reporter plasmid). […] Five hours after transfection, the cells wer e incubated with the test compounds in Opti-MEM supplemented with penicillin (100 U/mL), streptomycin (100 μg/mL), and 0.1% DMSO for 15 h before luciferase activity was measured using the Dual-Glo Luciferase Assay System (Promega) according to the manufacturer’s protocol on a Tecan Spark luminometer (Tecan Deutschland GmbH, Germany). Firefly luminescence was divided by Renilla luminescence and multiplied by 1000, resulting in relative light units (RLU) to normalize for transfection efficiency and cell growth. […]
(In a reporter assay the amount or activity of a reporter protein is the signal.)

The next test addresses T2, RXRγ (Homo sapiens, UniProt P48443).
T2 construct: pFA-CMV-hRXRγ-LBD; expressed in transfected cells; host or cells: HEK293T
T2 sequence (P48443 231-459 limits assumed): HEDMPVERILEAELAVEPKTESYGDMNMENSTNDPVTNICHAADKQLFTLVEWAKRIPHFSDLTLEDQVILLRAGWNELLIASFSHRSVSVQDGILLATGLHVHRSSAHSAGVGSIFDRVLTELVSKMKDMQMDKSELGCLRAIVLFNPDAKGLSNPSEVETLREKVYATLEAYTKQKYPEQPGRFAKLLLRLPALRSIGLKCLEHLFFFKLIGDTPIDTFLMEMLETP
Description: Gal4-hybrid reporter gene assay, RXRγ. The test is classed as cell-based. The note with it: Gal4-hybrid reporter gene assay; for EC50: mean±S.E.M., n≥3. The procedure: modified Eagle’s medium (DMEM), high glucose supplemented with 10% fetal calf serum (FCS), sodium pyruvate (1 mM), penicillin (100 U/mL), and streptomycin (100 μg/mL) at 37 °C and 5% CO2 and seeded in 96-well plates (3×10^4 cells/well). After 24 h, the medium was changed to Opti-MEM without supplements, and the cells were transiently transfected using Lipofectamine LTX reagent (Invitrogen) according to the manufacturer’s protocol. Five hours after transfection, the cells were incubated with the test compounds in Opti-MEM supplemented with penicillin (100 U/mL), streptomycin (100 μg/mL), and 0.1% DMSO for 15 h before luciferase activity was measured using the Dual -Glo Luciferase Assay System (Promega) according to the manufacturer’s protocol on a Tecan Spark l uminometer (Tecan Deutschland GmbH, Germany). Firefly luminescence was divided by Renilla luminescence and multiplied by 1000, resulting in relative light units (RLU) to normalize for transfection efficiency and cell growth. Fold activation was obtained by dividing the mean RLU of a sample by the mean RLU of the untreated control. All samples were tested in at least three biologically independent experiments in duplicates. For dose –response curve fitting and calculation of EC50 values, the equation “[Agonist] vs. response – Variable slope (four parameters)” was used in GraphPad Prism (version 5.04, GraphPad Software, La Jolla, CA, USA). […] (10 μM, NR4A) and bexarotene (1 µM, NR2B) served as the positive control. […]
150 μM in the same buffer containing 2-4% DMSO) in 21–26 injections (1 × 1 μL and 20 × 4 to 25 × 4 μL) with an injection interval of 120 s. As control experiments, the test compounds were titrated to the buffer, and the buffer was titrated to the protein under otherwise identical conditions. The heat rates of the compound-Nurr1 LBD titrations were analyzed using NanoAnalyze software (TA Instruments, New Castle, DE) with an independent binding model.

T1 sequence (P43354 whole entry): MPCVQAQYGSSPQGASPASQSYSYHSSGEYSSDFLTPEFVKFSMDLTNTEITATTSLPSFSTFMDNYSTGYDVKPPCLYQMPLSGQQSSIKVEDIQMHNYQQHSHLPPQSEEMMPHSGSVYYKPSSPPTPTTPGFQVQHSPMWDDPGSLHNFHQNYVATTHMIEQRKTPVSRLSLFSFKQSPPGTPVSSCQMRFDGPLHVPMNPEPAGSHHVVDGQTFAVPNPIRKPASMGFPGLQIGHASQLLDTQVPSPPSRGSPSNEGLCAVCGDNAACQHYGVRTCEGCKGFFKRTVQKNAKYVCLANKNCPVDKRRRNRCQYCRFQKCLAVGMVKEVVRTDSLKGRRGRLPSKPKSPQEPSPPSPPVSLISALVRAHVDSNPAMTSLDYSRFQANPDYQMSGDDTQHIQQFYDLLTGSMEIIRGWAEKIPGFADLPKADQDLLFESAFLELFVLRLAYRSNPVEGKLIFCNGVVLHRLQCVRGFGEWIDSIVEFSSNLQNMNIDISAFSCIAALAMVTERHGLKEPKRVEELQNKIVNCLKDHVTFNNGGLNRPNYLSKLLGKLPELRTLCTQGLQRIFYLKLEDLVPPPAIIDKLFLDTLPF
T1 sequence (P19793 whole entry): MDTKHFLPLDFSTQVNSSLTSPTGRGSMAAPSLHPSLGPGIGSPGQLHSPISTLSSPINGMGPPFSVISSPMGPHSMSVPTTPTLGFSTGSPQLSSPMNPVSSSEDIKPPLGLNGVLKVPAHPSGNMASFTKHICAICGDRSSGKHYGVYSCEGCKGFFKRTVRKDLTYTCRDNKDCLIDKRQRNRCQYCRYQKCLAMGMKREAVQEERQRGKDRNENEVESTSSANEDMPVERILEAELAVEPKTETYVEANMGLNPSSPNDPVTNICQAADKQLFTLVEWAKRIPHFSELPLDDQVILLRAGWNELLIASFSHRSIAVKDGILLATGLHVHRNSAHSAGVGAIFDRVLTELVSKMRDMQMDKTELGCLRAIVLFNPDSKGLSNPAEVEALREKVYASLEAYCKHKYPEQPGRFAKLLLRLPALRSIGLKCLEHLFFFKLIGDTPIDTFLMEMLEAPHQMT

In the case of `Cc1c(C)n(-c2ccc(CC(=O)O)cc2)c2ccc(F)cc12` [compound 3], the concentration giving a half-maximal response (EC50) (commonly the concentration giving half of the maximal effect) in test [1] amounted to 600 nM. Besides, at RXRγ, the “max. act. (RXR) γ” value was 67±4 fold and the midpoint of the response, the EC50, lay at 1700 nM.
For `Cc1c2c(n(-c3ccc(CC(=O)O)cc3)c1C)CCC(F)(F)C2` [compound 2], the EC50 in test [1] was 1000 nM. Further, at RXRγ, the “max. act. (RXR) γ” value was 44±1 fold and a half-maximal response (EC50) required 3400 nM.
